By Ki is commonly meant the dissociation constant of the complex between target and ligand, obtained from inhibition or displacement.

We go through 17 compounds from US7253187B2, “Heterocyclic inhibitors of ERK2 and uses thereof” (Vertex Pharmaceuticals Incorporated, priority 2001, dated 2007).

Common to all, as to type: biochemical
Assay [1] deals with T1, Aurora-2 (Homo sapiens, UniProt O14965).
T1 sequence (O14965 1-403): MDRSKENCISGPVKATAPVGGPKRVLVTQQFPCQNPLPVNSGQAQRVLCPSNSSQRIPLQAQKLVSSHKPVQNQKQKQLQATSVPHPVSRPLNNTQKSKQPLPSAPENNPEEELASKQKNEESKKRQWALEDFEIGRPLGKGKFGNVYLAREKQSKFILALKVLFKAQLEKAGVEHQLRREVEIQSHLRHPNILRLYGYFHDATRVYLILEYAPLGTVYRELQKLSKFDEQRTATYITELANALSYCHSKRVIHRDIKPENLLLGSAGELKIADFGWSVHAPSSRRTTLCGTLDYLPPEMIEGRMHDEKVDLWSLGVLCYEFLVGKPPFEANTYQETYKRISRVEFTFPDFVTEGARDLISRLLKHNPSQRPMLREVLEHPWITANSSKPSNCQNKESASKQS
The experiment in a line: Aurora-2 inhibition assay (coupled enzyme assay). As for the experimental part:
Compounds were screened in the following manner for their ability to inhibit Aurora-2 using a standard coupled enzyme assay (Fox et al (1998) Protein Sci 7, 2249).
To an assay stock buffer solution containing 0.1M HEPES 7.5, 10 mM MgCl2, 1 mM DTT, 25 mM NaCl, 2.5 mM phosphoenolpyruvate, […], 30 mg/ml pyruvate kinase, 10 mg/ml lactate dehydrogenase, […], and 800 μM peptide (LRRASLG, American Peptide, Sunnyvale, Calif.) was added a DMSO solution of a compound of the present invention to a final concentration of 30 μM. The resulting mixture was incubated at 30° C. for 10 min. The reaction was initiated by the addition of 10 μL of Aurora-2 stock solution to give a final concentration of 70 nM in the assay. The rates of reaction were obtained by monitoring absorbance at 340 nm over a 5 minute read time at 30° C. using a BioRad Ultramark plate reader (Hercules, Calif.). The Ki values were determined from the rate data as a function of inhibitor concentration.

Assay [2] addresses T2, GSK-3β (AA 1–420) (Homo sapiens, UniProt P49841).
T2 construct: GSK-3β (AA 1–420)
The experiment in a line: GSK-3 inhibition assay (coupled enzyme system). The settings on record: read-out: GSK3 Inhibitory Activity (Ki class). As for the experimental part: Final substrate concentrations in the assay were 20 μM ATP (Sigma Chemicals, St Louis, Mo.) and 300 μM peptide (HSSPHQS(PO3H2)EDEEE, American Peptide, Sunnyvale, Calif.). Reactions were carried out at 30° C. and 20 nM GSK-3β. Final concentrations of the components of the coupled enzyme system were 2.5 mM phosphoenolpyruvate, 300 μM NADH, 30 μg/ml pyruvate kinase and 10 μg/ml lactate dehydrogenase.
An assay stock buffer solution was prepared containing all of the reagents listed above with the exception of ATP and the test compound of interest. The assay stock buffer'solution (175 μl) was incubated in a 96 well plate with 5 μl of the test compound of interest at final concentrations spanning 0.002 μM to 30 μM at 30° C. for 10 min. […] The reaction was initiated by the addition of 20 μl of ATP (final concentration 20 μM). Rates of reaction were obtained using a Molecular Devices Spectramax plate reader (Sunnyvale, Calif.) over 10 min at 30° C. The Ki values were determined from the rate data as a function of inhibitor concentration.
The compound numbers correspond to the compound numbers in Table 1.

Assay [3] concerns the target ERK2 (Homo sapiens, UniProt P28482). The assay is described as follows: ERK2 inhibition assay (spectrophotometric coupled-enzyme assay). The settings on record: read-out: ERK2 Inhibitory Activity (Ki class D-F). The procedure:
The IC50 was evaluated from the rate data as a function of inhibitor concentration. […] The compound numbers correspond to the compound numbers in Table 1.

The target in assay [4] is CDK-2/Cyclin A (Homo sapiens, UniProt P24941). The experiment in a line: CDK-2 inhibition assay (coupled enzyme assay). The procedure: To an assay stock buffer solution containing 0.1M HEPES 7.5, 10 mM MgCl2, 1 mM DTT, 25 mM NaCl, 2.5 mM phosphoenolpyruvate, […], […], […], […], and 100 μM peptide ([…], American Peptide, Sunnyvale, Calif.) was added a DMSO solution of a compound of the present invention to a final concentration of 30 μM.
The Ki values were determined from the rate data as a function of inhibitor concentration.

Assay [5] deals with ERK1 (Homo sapiens, UniProt P27361). The assay is described as follows: ERK1 inhibition assay (spectrophotometric coupled-enzyme assay). The settings on record: read-out: inhibit ERK1 with an activity (Ki). As for the experimental part:
Compounds were assayed for the inhibition of ERK1 by a spectrophotometric coupled-enzyme assay (Fox et al (1998) Protein Sci 7, 2249). In this assay, a fixed concentration of activated ERK1 (20 nM) was incubated with various concentrations of the compound in DMSO (2.0%) for 10 min. at 30° C. in 0.1 M HEPES buffer, pH 7.6, containing 10 mM MgCl2, 2.5 mM-phosphoenolpyruvate, 200 μM NADH, 30 μg/mL pyruvate kinase, 10 μg/mL lactate dehydrogenase, and 150 μM erktide peptide. The reaction was initiated by the addition of 140 μM ATP (20 μL). The rate of decrease of absorbance at 340 nm was monitored. The Ki was evaluated from the rate data as a function of inhibitor concentration.

Chain of ERK2 (P28482 whole entry): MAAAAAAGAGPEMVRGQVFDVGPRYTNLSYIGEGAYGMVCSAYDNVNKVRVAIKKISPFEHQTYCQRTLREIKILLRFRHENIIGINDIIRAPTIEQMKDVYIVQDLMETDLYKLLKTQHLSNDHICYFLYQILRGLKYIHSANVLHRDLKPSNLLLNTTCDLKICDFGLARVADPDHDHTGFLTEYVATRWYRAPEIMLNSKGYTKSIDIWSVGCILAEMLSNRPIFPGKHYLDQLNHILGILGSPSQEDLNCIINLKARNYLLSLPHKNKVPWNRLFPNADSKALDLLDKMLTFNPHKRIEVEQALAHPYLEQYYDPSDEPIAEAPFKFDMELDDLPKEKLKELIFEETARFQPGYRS
T2 sequence (P49841 whole entry, species assumed, the tested form may be a part): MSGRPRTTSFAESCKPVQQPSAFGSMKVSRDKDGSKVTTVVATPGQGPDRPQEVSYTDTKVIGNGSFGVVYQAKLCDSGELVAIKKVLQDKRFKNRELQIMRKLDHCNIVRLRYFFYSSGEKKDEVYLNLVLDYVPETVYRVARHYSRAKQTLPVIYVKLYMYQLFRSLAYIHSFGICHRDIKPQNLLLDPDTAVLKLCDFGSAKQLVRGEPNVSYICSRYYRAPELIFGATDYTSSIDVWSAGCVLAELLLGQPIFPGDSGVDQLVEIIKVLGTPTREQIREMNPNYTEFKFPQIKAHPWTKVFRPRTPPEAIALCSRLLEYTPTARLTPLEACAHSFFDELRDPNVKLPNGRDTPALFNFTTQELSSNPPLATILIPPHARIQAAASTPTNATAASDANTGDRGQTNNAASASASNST
Chain of ERK1 (P27361 whole entry, species assumed): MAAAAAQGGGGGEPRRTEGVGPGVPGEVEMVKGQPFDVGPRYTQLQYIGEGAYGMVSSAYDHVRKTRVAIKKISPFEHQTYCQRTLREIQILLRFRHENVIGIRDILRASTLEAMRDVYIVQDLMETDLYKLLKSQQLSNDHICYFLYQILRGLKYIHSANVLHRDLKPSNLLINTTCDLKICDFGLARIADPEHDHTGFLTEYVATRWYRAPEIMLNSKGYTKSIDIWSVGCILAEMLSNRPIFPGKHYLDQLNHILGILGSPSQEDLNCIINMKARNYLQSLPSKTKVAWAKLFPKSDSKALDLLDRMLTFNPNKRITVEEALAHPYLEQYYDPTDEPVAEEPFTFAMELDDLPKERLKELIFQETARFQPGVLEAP

With `Cc1cnc(Nc2ccccc2)nc1-c1c[nH]c(C(=O)NC(CO)c2ccccc2)c1` (stereo not shown) [III-a-116, 4-(5-Methyl-2-phenylamino-pyrimidin-4-yl)-1H-pyrrole-2-carboxylic acid (2-hydroxy-1-phenyl-ethyl)-amide], the “found to inhibit Aurora-2” value in assay [1] is listed as “found to inhibit Aurora-2”.

Regarding `CCNc1ncc(C)c(-c2c[nH]c(C(=O)N[C@H](CO)c3ccccc3)c2)n1` [III-a-117, 4-(2-Ethylamino-5-methyl-pyrimidin-4-yl)-1H-pyrrole-2-carboxylic acid (2-hydroxy-1-phenyl-ethyl)-amide], the values for the Ki in assay [2], in assay [3] and in assay [4] were below 100 nM, below 100 nM and 1000 to 20000 nM, respectively. Moreover, the “found to inhibit Aurora-2” value in assay [1] is “found to inhibit Aurora-2”.

For `Cc1cnc(Nc2cccc(O)c2)nc1-c1c[nH]c(C(=O)NC(CO)c2ccccc2)c1` (stereo not shown) [III-a-138, 4-[2-(3-Hydroxy-phenylamino)-5-methyl-pyrimidin-4-yl]-1H-pyrrole-2-carboxylic acid (2-hydroxy-1-phenyl-ethyl)-amide], in assay [2], the Ki was below 100 nM. Besides, the “found to inhibit Aurora-2” value in assay [1] is reported as “found to inhibit Aurora-2”.

In the case of `Cc1cnc(Nc2ccc(S(N)(=O)=O)cc2)nc1-c1c[nH]c(C(=O)NC(CO)c2ccccc2)c1` (stereo not shown) [III-a-140, 4-[5-Methyl-2-(4-sulfamoyl-phenylamino)-pyrimidin-4-yl]-1H-pyrrole-2-carboxylic acid (2-hydroxy-1-phenyl-ethyl)-amide], the Ki in assay [2] and in assay [3] was below 100 nM in each case. In addition, the “found to inhibit Aurora-2” value in assay [1] is “found to inhibit Aurora-2”.

In the case of `Cc1cnc(Nc2cccc(OCc3ccccc3)c2)nc1-c1c[nH]c(C(=O)NC(CO)c2ccccc2)c1` (stereo not shown) [III-a-141, 4-[2-(3-Benzyloxy-phenylamino)-5-methyl-pyrimidin-4-yl]-1H-pyrrole-2-carboxylic acid (2-hydroxy-1-phenyl-ethyl)-amide], the Ki in assay [2] and in assay [3] was below 100 nM in each case. Besides, the “found to inhibit Aurora-2” value in assay [1] is listed as “found to inhibit Aurora-2”.

For the compound `Cc1cnc(NC2CCC(O)CC2)nc1-c1c[nH]c(C(=O)NC(CO)c2ccccc2)c1` (stereo not shown) [III-a-142, 4-[2-(4-Hydroxy-cyclohexylamino)-5-methyl-pyrimidin-4-yl]-1H-pyrrole-2-carboxylic acid (2-hydroxy-1-phenyl-ethyl)-amide], the Ki in assay [2], in assay [3] and in assay [4] was below 100 nM throughout.

For `Cc1cnc(Nc2ccccc2)nc1-c1c[nH]c(C(=O)NC(CO)c2cccc(C(F)(F)F)c2)c1` (stereo not shown) [III-a-146, 4-(5-Methyl-2-phenylamino-pyrimidin-4-yl)-1H-pyrrole-2-carboxylic acid [2-hydroxy-1-(3-trifluoromethyl-phenyl)-ethyl]-amide], the Ki in assay [2] and in assay [4] was 100 to 1000 nM throughout.

For the compound `Cc1cnc(Nc2cccc(F)c2)nc1-c1c[nH]c(C(=O)NC(CO)c2cccc(C(F)(F)F)c2)c1` (stereo not shown) [III-a-148, 4-[2-(3-Fluoro-phenylamino)-5-methyl-pyrimidin-4-yl]-1H-pyrrole-2-carboxylic acid [2-hydroxy-1-(3-trifluoromethyl-phenyl)-ethyl]-amide], the Ki in assay [2] is below 100 nM; in assay [3] it was below 100 nM; in assay [4], 100 to 1000 nM.

With `Cc1cnc(Nc2cccc(C(F)(F)F)c2)nc1-c1c[nH]c(C(=O)NC(CO)c2ccccc2)c1` (stereo not shown) [III-a-149, 4-[5-Methyl-2-(3-trifluoromethyl-phenylamino)-pyrimidin-4-yl]-1H-pyrrole-2-carboxylic acid (2-hydroxy-1-phenyl-ethyl)-amide], the Ki in assay [2], in assay [3] and in assay [4] was below 100 nM each time.

For `Cc1cnc(NCc2ccccc2)nc1-c1c[nH]c(C(=O)NC(CO)c2ccccc2)c1` (stereo not shown) [III-a-150, 4-(2-Benzylamino-5-methyl-pyrimidin-4-yl)-1H-pyrrole-2-carboxylic acid (2-hydroxy-1-phenyl-ethyl)-amide], the Ki in assay [2] was 100 to 1000 nM; in assay [3], below 100 nM; in assay [4], 100 to 1000 nM.

In the case of `Cc1cnc(Nc2ccc(OCc3ccccc3)cc2)nc1-c1c[nH]c(C(=O)NC(CO)c2ccccc2)c1` (stereo not shown) [III-a-152, 4-[2-(4-Benzyloxy-phenylamino)-5-methyl-pyrimidin-4-yl]-1H-pyrrole-2-carboxylic acid (2-hydroxy-1-phenyl-ethyl)-amide], the Ki in assay [2], in assay [3] and in assay [4] was below 100 nM each time.

For the compound `Cc1cnc(N[C@H](CO)c2ccccc2)nc1-c1c[nH]c(C(=O)N[C@H](CO)c2ccccc2)c1` [III-a-155, 4-[2-(2-Hydroxy-1-(S)-phenyl-ethylamino)-5-methyl-pyrimidin-4-yl]-1H-pyrrole-2-carboxylic acid (2-hydroxy-1-(S)-phenyl-ethyl)-amide], the Ki in assay [2] was 100 to 1000 nM; in assay [3], below 100 nM; in assay [4] it was 100 to 1000 nM.

`COc1ccccc1Nc1ncc(C)c(-c2c[nH]c(C(=O)NC(CO)c3ccccc3)c2)n1` (stereo not shown) [III-a-156, 4-[2-(2-Methoxy-phenylamino)-5-methyl-pyrimidin-4-yl]-1H-pyrrole-2-carboxylic acid (2-hydroxy-1-phenyl-ethyl)-amide]: the Ki is 100 to 1000 nM in assay [2] and 1000 to 20000 nM in assay [4].

Take `Cc1cnc(NCC2CC2)nc1-c1c[nH]c(C(=O)NC(CO)c2ccccc2)c1` (stereo not shown) [III-a-159, 4-[2-(Cyclopropylmethyl-amino)-5-methyl-pyrimidin-4-yl]-1H-pyrrole-2-carboxylic acid (2-hydroxy-1-phenyl-ethyl)-amide]: the Ki in assay [2] is below 100 nM; in assay [3], below 100 nM; in assay [4], 1000 to 20000 nM.

As for `Cc1cnc(NC2CC2)nc1-c1c[nH]c(C(=O)N[C@H](CO)c2ccccc2)c1` [III-a-162, 4-(2-Cyclopropylamino-5-methyl-pyrimidin-4-yl)-1H-pyrrole-2-carboxylic acid (2-hydroxy-1-(S)-phenyl-ethyl)-amide], the Ki in assay [2] is below 100 nM; in assay [3], below 100 nM; in assay [4], 100 to 1000 nM.

Consider `Cc1cnc(NC2(CO)CC2)nc1-c1c[nH]c(C(=O)NC(CO)c2ccccc2)c1` (stereo not shown) [III-a-174, 4-[2-(1-Hydroxymethyl-cyclopropylamino)-5-methyl-pyrimidin-4-yl]-1H-pyrrole-2-carboxylic acid (2-hydroxy-1-phenyl-ethyl)-amide], for which the Ki in assay [2] was below 100 nM; in assay [3], below 100 nM; in assay [4] it was 100 to 1000 nM.

For the compound `Cc1cnc(NC2CC2)nc1-c1c[nH]c(C(=O)NC(CO)c2cccc(Cl)c2)c1` (stereo not shown) [III-a-204, 4-(2-Cyclopropylamino-5-methyl-pyrimidin-4-yl)-1H-pyrrole-2-carboxylic acid [1-(3-chloro-phenyl)-2-hydroxy-ethyl]-amide], the Ki in assay [5] and in assay [3] was below 100 nM each time.
